Test [1] concerns the target Wee1-like protein kinase (Homo sapiens) (UniProt P30291). The test can be described thus: Selectivity interaction (LanthaScreen Eu Kinase Binding Assay) EUB0001632a WEE1. Particulars: at 10 µM. (In general: TR-FRET usually uses a lanthanide donor and a delayed reading to cut background.)
Test [2] deals with T1, Dual specificity mitogen-activated protein kinase kinase 7 (Homo sapiens) (UniProt O14733).
T1 sequence (whole entry): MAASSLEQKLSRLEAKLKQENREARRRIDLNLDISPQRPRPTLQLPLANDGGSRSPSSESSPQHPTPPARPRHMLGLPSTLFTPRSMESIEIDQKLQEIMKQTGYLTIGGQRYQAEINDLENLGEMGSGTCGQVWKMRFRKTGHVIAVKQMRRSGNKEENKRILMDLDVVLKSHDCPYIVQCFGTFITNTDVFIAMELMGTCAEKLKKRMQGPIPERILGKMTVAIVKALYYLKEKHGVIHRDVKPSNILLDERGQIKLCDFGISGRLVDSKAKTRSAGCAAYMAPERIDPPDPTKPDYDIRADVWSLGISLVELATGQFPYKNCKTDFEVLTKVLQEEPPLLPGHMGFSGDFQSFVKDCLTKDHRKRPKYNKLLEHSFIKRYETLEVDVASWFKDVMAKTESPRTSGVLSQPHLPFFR
The test can be described thus: Selectivity interaction (KinomeScan (DiscoverX)) EUB0001619a MAP2K7. Conditions: at 1 µM.

The target of test [3] is Mitogen-activated protein kinase kinase kinase 9 (Homo sapiens) (UniProt P80192). The test is described as follows: Selectivity interaction (KinomeScan (DiscoverX)) EUB0000695a MAP3K9. Particulars: at 100 nM.
For test [4], the target named is T2, Serine/threonine-protein kinase D3 (Homo sapiens) (UniProt O94806).
T2 sequence (whole entry): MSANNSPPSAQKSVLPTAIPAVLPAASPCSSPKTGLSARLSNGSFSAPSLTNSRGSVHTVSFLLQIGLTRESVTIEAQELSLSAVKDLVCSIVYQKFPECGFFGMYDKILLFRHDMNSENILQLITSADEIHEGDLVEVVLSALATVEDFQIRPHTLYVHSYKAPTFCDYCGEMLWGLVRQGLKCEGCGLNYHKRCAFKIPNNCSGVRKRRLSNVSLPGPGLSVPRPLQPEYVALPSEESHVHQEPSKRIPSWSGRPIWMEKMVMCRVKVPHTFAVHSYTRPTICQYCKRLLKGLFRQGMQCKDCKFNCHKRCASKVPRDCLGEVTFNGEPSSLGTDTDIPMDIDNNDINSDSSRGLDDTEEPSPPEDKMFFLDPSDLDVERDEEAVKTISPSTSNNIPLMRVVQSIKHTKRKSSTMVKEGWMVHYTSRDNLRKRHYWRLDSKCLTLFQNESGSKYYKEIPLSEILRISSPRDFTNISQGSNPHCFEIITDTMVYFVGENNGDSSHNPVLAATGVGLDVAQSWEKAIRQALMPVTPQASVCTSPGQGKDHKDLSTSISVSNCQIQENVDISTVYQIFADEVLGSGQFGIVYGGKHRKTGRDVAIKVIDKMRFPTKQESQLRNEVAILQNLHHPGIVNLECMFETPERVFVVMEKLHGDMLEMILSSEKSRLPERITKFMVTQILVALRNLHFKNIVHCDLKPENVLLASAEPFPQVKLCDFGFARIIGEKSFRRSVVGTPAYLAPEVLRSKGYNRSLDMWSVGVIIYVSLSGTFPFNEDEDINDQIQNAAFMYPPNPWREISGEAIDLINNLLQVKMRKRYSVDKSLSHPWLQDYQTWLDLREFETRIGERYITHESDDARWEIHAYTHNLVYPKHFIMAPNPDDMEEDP
The test is described as follows: Selectivity interaction (KinomeScan (DiscoverX)) EUB0000045b PRKD3.

The target of test [5] is Receptor tyrosine-protein kinase erbB-2 (Homo sapiens, UniProt P04626). The test can be described thus: Selectivity interaction (ProQinase) EUB0000171b ERBB2.
For test [6], the target named is Phosphatidylinositol 4-phosphate 5-kinase type-1 gamma (Homo sapiens) (UniProt O60331). The test is described as follows: Selectivity interaction (ProQinase) EUB0000171b PIP5K1C. Conditions: at 1 µM.
Test [7] addresses MAP kinase-activated protein kinase 2 (Homo sapiens, UniProt P49137). The test is described as follows: Selectivity interaction (Ambit KINOMEscan and KiNATiv profiling in Jurkat cells) EUB0000090b MAPKAPK2. The format is cell-based. Conditions: at 1 µM.
For test [8], the target named is T3, Ephrin type-A receptor 6 (Homo sapiens) (UniProt Q9UF33).
T3 sequence (whole entry): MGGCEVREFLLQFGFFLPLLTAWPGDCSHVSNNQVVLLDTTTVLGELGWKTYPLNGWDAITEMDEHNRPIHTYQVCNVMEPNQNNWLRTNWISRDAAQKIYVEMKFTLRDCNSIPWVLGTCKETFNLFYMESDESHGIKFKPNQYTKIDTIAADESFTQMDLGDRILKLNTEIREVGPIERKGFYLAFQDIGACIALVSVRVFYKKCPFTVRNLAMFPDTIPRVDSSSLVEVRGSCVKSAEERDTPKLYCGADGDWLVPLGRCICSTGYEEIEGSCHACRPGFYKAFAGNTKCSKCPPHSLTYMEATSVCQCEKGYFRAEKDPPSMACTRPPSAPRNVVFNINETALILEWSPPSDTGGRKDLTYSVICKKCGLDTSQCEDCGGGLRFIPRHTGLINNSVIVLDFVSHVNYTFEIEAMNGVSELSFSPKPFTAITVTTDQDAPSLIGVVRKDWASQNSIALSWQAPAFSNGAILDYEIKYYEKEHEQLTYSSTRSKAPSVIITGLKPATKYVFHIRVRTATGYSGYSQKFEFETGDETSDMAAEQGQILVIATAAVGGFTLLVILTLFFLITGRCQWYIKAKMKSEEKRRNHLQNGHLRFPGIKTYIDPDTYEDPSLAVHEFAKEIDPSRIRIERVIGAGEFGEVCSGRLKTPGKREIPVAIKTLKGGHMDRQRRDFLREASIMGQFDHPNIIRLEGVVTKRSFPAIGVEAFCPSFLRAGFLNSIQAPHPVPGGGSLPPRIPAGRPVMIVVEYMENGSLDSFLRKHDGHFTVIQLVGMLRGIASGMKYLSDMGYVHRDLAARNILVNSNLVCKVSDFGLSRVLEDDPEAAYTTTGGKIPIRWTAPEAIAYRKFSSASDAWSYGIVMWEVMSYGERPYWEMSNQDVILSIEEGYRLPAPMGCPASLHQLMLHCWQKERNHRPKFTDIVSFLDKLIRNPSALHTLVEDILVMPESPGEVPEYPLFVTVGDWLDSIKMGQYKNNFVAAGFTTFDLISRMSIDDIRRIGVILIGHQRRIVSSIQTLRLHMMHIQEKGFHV
The test is described as follows: Selectivity interaction (KinomeScan (DiscoverX)) EUB0000092b EPHA6. Particulars: at 10 µM.

In test [9] the target is Mitogen-activated protein kinase 14 (Homo sapiens, UniProt Q16539). The test is described as follows: Selectivity interaction (Kinase panel (DSF assay)) EUB0001558a MAPK14. Background: DSF heats the sample and reads unfolding from a dye or from intrinsic fluorescence.
Test [10] has as its target Glutamate receptor ionotropic, NMDA 2B (Homo sapiens) (UniProt Q13224). The test is described as follows: Selectivity interaction (Panel of kinases, GPCRs, ion channels and transporters (enzymatic assay)) EUB0000266bCl GRIN2B.

Receptor tyrosine-protein kinase erbB-2, sequence (P04626 whole entry): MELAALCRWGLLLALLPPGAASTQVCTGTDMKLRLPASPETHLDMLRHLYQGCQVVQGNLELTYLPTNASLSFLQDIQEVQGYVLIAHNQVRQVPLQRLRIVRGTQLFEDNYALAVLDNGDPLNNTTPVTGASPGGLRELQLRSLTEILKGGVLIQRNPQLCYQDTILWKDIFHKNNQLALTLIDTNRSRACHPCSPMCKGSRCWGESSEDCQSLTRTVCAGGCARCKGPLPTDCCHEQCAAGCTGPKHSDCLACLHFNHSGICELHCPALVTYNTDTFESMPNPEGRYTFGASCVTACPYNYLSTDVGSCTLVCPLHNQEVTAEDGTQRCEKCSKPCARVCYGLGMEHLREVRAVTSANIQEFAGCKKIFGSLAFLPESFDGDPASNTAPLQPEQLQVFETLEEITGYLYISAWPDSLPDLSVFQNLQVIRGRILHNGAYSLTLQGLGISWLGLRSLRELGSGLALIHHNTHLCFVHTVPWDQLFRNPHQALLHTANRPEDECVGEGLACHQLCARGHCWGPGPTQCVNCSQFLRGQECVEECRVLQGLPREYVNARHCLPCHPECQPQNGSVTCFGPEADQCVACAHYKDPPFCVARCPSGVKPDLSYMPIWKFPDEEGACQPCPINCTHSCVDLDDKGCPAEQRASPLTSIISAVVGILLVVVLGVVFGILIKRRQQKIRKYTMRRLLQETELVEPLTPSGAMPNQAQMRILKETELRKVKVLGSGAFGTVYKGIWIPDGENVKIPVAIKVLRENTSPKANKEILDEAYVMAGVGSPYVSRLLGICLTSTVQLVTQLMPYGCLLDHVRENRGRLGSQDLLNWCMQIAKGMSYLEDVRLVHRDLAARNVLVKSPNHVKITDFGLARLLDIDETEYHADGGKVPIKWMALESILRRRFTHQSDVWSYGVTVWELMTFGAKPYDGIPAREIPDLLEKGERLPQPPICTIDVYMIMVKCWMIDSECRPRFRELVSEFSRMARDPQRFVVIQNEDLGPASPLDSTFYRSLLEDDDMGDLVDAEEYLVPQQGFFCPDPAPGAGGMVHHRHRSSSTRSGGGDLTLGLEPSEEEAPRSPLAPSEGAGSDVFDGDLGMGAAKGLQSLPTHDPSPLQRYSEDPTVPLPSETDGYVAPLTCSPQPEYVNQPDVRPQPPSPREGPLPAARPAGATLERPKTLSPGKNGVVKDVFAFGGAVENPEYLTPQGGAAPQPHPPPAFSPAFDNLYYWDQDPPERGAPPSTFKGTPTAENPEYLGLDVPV
Mitogen-activated protein kinase 14, sequence (Q16539 whole entry): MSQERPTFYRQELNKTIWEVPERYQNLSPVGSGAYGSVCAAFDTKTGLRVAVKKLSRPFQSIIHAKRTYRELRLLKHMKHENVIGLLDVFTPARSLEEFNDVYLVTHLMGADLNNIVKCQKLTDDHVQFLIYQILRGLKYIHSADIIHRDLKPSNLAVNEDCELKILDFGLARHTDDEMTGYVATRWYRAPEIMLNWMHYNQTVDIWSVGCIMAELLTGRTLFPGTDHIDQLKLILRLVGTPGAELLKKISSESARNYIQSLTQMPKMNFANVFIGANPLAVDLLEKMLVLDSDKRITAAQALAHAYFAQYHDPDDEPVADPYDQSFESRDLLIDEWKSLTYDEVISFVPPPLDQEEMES
Glutamate receptor ionotropic, NMDA 2B (Homo sapiens), sequence (Q13224 27-1484 limits assumed): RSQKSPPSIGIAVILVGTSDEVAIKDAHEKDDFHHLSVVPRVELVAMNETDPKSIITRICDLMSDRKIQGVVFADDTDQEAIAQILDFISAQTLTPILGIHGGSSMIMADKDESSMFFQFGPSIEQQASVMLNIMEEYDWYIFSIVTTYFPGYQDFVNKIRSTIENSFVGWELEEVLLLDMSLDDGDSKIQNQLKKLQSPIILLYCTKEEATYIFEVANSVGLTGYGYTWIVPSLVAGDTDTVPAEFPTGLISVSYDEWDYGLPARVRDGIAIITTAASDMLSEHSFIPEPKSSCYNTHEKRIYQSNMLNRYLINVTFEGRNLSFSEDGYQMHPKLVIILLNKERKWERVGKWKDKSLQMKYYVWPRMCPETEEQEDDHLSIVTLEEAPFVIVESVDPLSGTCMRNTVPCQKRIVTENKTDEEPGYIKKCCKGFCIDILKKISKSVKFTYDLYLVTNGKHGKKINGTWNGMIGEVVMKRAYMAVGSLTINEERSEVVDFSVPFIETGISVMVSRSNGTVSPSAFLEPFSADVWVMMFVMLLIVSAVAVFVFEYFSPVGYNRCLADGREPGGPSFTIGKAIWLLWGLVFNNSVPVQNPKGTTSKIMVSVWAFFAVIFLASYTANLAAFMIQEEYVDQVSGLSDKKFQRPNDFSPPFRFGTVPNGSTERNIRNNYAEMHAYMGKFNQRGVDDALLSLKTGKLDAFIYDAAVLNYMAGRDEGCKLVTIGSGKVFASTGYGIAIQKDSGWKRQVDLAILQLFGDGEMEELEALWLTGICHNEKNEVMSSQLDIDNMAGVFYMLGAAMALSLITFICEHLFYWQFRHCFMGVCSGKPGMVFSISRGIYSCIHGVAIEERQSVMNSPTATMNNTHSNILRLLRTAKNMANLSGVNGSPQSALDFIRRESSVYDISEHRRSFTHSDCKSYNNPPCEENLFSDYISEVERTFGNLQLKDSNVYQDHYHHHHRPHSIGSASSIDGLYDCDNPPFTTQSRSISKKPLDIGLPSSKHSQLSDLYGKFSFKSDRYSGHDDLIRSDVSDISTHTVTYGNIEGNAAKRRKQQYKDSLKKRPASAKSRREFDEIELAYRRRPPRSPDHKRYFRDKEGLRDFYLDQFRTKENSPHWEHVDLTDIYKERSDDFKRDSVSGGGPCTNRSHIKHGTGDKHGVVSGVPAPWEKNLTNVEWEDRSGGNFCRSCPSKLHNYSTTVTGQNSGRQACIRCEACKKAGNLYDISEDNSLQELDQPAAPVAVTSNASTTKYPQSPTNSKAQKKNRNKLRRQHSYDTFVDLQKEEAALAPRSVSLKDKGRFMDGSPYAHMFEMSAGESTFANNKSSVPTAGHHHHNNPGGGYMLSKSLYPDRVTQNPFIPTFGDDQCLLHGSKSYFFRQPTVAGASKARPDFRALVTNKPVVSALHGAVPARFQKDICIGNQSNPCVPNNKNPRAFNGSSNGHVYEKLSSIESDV
Wee1-like protein kinase (Homo sapiens), sequence (P30291 whole entry, looked up): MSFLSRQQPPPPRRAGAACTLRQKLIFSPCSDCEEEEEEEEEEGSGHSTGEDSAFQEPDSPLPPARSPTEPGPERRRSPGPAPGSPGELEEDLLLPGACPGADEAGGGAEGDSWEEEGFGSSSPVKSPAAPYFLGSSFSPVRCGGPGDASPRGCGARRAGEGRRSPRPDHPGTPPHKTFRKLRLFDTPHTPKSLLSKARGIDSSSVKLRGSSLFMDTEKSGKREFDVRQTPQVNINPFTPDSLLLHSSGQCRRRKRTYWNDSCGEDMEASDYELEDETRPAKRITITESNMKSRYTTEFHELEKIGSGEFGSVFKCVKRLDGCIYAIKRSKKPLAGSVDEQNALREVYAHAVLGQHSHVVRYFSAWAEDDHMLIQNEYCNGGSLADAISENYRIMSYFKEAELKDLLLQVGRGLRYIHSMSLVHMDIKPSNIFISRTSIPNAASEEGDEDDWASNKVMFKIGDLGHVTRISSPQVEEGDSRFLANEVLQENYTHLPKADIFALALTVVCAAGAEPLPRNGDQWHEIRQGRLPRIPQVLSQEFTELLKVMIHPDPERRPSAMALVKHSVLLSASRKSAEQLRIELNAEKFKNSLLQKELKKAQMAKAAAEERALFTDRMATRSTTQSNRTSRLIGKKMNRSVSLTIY
MAP kinase-activated protein kinase 2, sequence (P49137 whole entry, looked up): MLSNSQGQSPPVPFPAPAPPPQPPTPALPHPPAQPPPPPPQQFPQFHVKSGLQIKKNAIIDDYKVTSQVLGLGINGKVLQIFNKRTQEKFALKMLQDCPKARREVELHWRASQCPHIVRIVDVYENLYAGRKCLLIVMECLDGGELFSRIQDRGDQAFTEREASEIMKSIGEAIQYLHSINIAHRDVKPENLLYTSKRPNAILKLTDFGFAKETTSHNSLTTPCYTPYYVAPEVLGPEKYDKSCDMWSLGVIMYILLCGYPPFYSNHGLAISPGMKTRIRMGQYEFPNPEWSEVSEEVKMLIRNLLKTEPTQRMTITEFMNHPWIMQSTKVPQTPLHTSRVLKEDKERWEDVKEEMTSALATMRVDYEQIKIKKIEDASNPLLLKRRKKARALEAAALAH
Phosphatidylinositol 4-phosphate 5-kinase type-1 gamma (Homo sapiens), sequence (O60331 whole entry): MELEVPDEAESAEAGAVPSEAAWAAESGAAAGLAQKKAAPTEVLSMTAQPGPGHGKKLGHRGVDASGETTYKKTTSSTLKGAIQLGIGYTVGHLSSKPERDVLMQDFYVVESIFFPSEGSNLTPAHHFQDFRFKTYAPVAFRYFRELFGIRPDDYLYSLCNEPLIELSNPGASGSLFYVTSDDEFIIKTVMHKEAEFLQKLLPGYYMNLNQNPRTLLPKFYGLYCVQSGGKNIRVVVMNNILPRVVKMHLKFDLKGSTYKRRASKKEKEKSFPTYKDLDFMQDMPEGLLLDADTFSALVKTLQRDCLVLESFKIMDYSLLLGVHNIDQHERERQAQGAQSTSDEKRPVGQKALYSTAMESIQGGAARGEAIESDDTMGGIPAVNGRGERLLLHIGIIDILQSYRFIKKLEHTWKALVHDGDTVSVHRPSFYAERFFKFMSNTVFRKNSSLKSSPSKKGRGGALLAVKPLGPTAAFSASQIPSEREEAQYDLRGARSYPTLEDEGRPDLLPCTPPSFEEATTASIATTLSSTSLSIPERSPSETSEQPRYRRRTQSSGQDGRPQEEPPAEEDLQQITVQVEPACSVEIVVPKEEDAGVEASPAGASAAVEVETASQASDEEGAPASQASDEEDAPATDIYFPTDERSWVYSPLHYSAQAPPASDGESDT

As to `Cn1cc(-n2cnc3c(NCc4nc5cc(Cl)c(Cl)cc5[nH]4)nc(N4CCOCC4)nc32)cn1`, the % of inhibition in [1] is -20.9%. For the molecule `N#Cc1cccc(-c2c[nH]c3ncnc(N4CCOCC4)c23)c1`, in [2], the % of control is 80%. Take `Cc1cc(F)c(C(=O)Nc2cccc(-c3nncn3C(C)C)n2)cc1-n1cnc(C2CC2)c1`: in test [3], the % of control amounted to 99%.

`C=CC(=O)Nc1cc(-n2c(=O)ccc3cnc4ccc(-c5ccc(NS(C)(=O)=O)cc5)cc4c32)ccc1C`: the % of control in [4] (at 1 µM) was 82%; in test [4] (at 10 µM), 68%. Turning to `C=CC(=O)Nc1cccc(C(=O)Nc2ccc(Nc3cc(-c4[nH]c(SC)nc4C)ccn3)cc2)c1`, the % of control in [5] (at 1 µM) stood at 92%; in test [5] (at 5 µM), 94%; in test [6], 107%. In test [7], `CN(C)C/C=C/C(=O)Nc1ccc(C(=O)N2CCCC(Nc3ncc(Cl)c(-c4c[nH]c5ccccc45)n3)C2)cc1` (configuration not stated) had a % of control of 97%.

On to `CCC(=O)N1CCN(c2ccc(-n3c(=O)ccc4cnc5ccc(-c6cnc7ccccc7c6)cc5c43)cc2C(F)(F)F)CC1`, for which, in [8], the % of control is 75%. Take `CC(C)(O)[C@H](F)CN1Cc2cc(NC(=O)c3cnn4cccnc34)c(N3CCOCC3)cc2C1=O`: the dTM in test [9] stood at 0.3 K. Consider `CCn1c(-c2nc3cc(C(=O)N4CCCC(N)C4)ccc3n2C)cc2ccccc21` (configuration not stated), for which the pXC50 in test [10] was below 4.3 M.

Values taken from ChEMBL document CHEMBL5465560, “Selectivity Literature for EUbOPEN Chemogenomic Library” (2024).
